Molecular target: T1, amyloid-β 42 (Aβ42), monomeric (Homo sapiens, UniProt P05067)
T1 construct: gene APP; Aβ42, monomeric 42-residue peptide, N-terminally biotinylated for BLI
Experiment: biolayer interferometry (kon/koff global fit); supported by 2D HN-BESTCON NMR and dot-blot sequestration fit (Kd […])
Assay type: binding

T1 sequence (P05067 672-713): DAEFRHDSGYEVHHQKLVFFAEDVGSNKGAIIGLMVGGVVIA

Kd: 6 µM
Structure (SMILES): O=[N+]([O-])c1ccc(Nc2ccccc2-c2ccccc2)c2nonc12 [10074-G5, biphenyl-2-yl-(7-nitro-benzo[1,2,5]oxadiazol-4-yl)-amine]

From PMC7673680, “Small-molecule sequestration of amyloid-β as a drug discovery strategy for Alzheimer’s disease” (Science Advances, 2020)
